The subject of data set [1] is Ctenocephalides felis. As to the kind of experiment: Ctenocephalides felis - in vitro contact tests with adult cat fleas. The conditions noted are these: application rate 5 μg/cm2 (=500 g/ha); after 48 h; fleas dead or moribund. The format is in vivo. On the procedure:
For the coating of the test tubes, 9 mg of active ingredient are first dissolved in 1 ml of acetone p.a. and then diluted to the desired concentration with acetone p.a. 250 μl of the solution are distributed homogeneously on the inner walls and base of a 25 ml test tube by turning and rocking on an orbital shaker (rocking rotation at 30 rpm for 2 h). With 900 ppm active ingredient solution and internal surface area 44.7 cm^2, given homogeneous distribution, an area-based dose of 5 μg/cm^2 is achieved.
After the solvent has evaporated off, the tubes are populated with 5-10 adult cat fleas (Ctenocephalides felis), sealed with a perforated plastic lid and incubated in a horizontal position at room temperature and ambient humidity. After 48 h, efficacy is determined. To this end, the test tubes are stood upright and the fleas are knocked to the base of the tube. Fleas which remain motionless at the base or move in an uncoordinated manner are considered to be dead or moribund.
100% efficacy means that all the fleas were dead or moribund. 0% efficacy means that no fleas were harmed.

The nature of data set [2]: logP determination by HPLC on a reversed-phase column (C18). The format is physicochemical. The note with it: for logP^a): HPLC-MS method a); for log P: HPLC-MS.
Data set [3] relates to Boophilus microplus. As to the kind of experiment: Boophilus microplus - injection test. The note with it: application rate 20 μg/animal; injection into engorged adult female ticks; after 7 days. The format is in vivo. Summed up:
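Five engorged adult female cattle ticks each received a 1 μl abdominal injection of compound solution in dimethyl sulphoxide. Fertile egg laying was assessed at 7 days, with doubtful eggs incubated about 42 days until hatch. 0% efficacy means all eggs fertile.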

The subject of data set [4] is Ctenocephalides felis. As to the kind of experiment: Ctenocephalides felis - oral test. The format is in vivo. The conditions noted are these: application rate 100 ppm in citrated cattle blood; after 2 days. In a few lines: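 Roughly 20 unfed adult C. felis imbibe compound-dosed citrated cattle blood (DMSO formulation) across parafilm from a cylinder above their gauze chamber; percentage mortality recorded at day 2.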

Data set [5] relates to Lucilia cuprina. The experiment in a line: Lucilia cuprina test. The format is in vivo. The conditions noted are these: application rate 100 ppm; L1 larvae; after 2 days. The protocol:
(§1) Solvent: dimethyl sulphoxide
(§2) To produce an appropriate active ingredient formulation, 10 mg of active ingredient are mixed with 0.5 ml of dimethyl sulphoxide, and the concentrate is diluted with water to the desired concentration.
About 20 L1 larvae of the Australian sheep blowfly (Lucilia cuprina) are transferred into a test vessel containing minced horsemeat and the active ingredient preparation of the desired concentration.
After 2 days, the kill in % is determined. 100% means that all the larvae have been killed; 0% means that none of the larvae have been killed.

The subject of data set [6] is Musca domestica. The experiment in a line: Musca domestica test. The format is in vivo. The conditions noted are these: application rate 100 ppm; adult houseflies; after 2 days. On the procedure:
as §1, §2
Vessels containing a sponge treated with sugar solution and the active ingredient formulation of the desired concentration are populated with 10 adult houseflies (Musca domestica).
After 2 days, the kill in % is determined. 100% means that all of the flies have been killed; 0% means that none of the flies have been killed.

The subject of data set [7] is Phaedon cochleariae. The experiment in a line: Phaedon cochleariae - spray test. The format is in vivo. The conditions noted are these: larvae on Chinese cabbage leaf discs, after 7 days. Summed up: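 Mortality of mustard beetle larvae was scored as % at day 7 on Brassica pekinensis leaf discs. Discs had been treated by spraying at the desired concentration, using an acetone/dimethylformamide solution diluted in water with 1000 ppm alkylaryl polyglycol ether, and dried before larvae were added.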

Data set [8] has as its system Spodoptera frugiperda. The experiment in a line: Spodoptera frugiperda - spray test. The format is in vivo. The conditions noted are these: caterpillars on maize leaf discs, after 7 days. Summed up: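 Percent mortality of Spodoptera frugiperda caterpillars scored 7 days after placing them on dried maize leaf discs sprayed at the desired concentration. Spray formulation: compound dissolved in acetone/dimethylformamide, made up with water containing 1000 ppm emulsifier.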

Data set [9] deals with Tetranychus urticae. As to the kind of experiment: Tetranychus urticae - spray test, OP-resistant. The format is in vivo. The note with it: bean leaf discs, after 6 days. In a few lines: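 Mortality (%) read on day 6 after spraying Phaseolus vulgaris leaf discs carrying all mite stages with formulations at the desired concentration. Formulation: active ingredient in acetone plus dimethylformamide, made up with emulsifier-containing water (1000 ppm alkylaryl polyglycol ether).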

Setting [10] is: reversed-phase column (C18), Table I-T3.

In data set [1], `N#CC1(CNC(=O)c2cc(-c3cnn(-c4c(Cl)cc(C(F)(C(F)(F)F)C(F)(F)F)cc4C(F)(F)F)c3)ccc2Cl)CC1` [I-T3-199] came in with an efficacy of 100%.

As to `N#CC1(NC(=O)c2cc(-c3cnn(-c4ccc(C(F)(C(F)(F)F)C(F)(F)F)cc4OC(F)(F)F)c3)ccc2Cl)CC1` [I-T3-34], the “logP^a)” value in [2] and in [2] (setting [10]) was 4.6 in each case. Further, in [3], the “efficacy (laying of fertile eggs)” value is 100%. Also, the “efficacy (kill)” value in [4], in [5] and in [6] was 100% throughout. Moreover, the efficacy in data set [7] (application rate 500 g/ha), in data set [8] (application rate 500 g/ha) and in data set [9] (application rate 500 g/ha) was 100% each time.

Take `Cc1cc(C(F)(C(F)(F)F)C(F)(F)F)cc(C)c1-n1cc(-c2cc(C(=O)NC3(C#N)CC3)c(Cl)cc2F)cn1` [I-T3-17]: the “logP^a)” value in [2] and in [2] (setting [10]) was 4.4 throughout. The efficacy in data set [1], in [7] (application rate 500 g/ha) and in data set [8] (application rate 500 g/ha) was 100% throughout. In addition, the “efficacy (laying of fertile eggs)” value in data set [3] worked out at 100%. The “efficacy (kill)” value in data set [4] came out at 95%; in data set [5], 100%.

Take `Cc1cc(C(F)(C(F)(F)F)C(F)(F)F)cc(C)c1-n1cc(-c2ccc(Cl)c(C(=O)NC3(C#N)CC3)c2F)cn1` [I-T3-65]: the “logP^a)” value in data set [2] worked out at 4.4; in [2] (setting [10]), 4.3. Moreover, the “efficacy (laying of fertile eggs)” value in [3] is given as 100%. Also, the “efficacy (kill)” value in data set [4], in data set [5] and in data set [6] was 100% throughout. For the same molecule, the efficacy in data set [7] (application rate 500 g/ha) came to 100%; in data set [8] (application rate 500 g/ha) it was 100%; in data set [9] (application rate 500 g/ha), 90%.

A word on the log P: it is the decadic logarithm of the partition coefficient of the neutral form, usually between octanol and water. High values mean a more lipophilic compound, low ones a more hydrophilic compound. As to `CCNC(=O)c1cc(-c2cnn(-c3c(Cl)cc(C(F)(F)F)cc3Cl)c2)cnc1C` [I-T3-147], the “logP^a)” value in data set [2] (reversed-phase column (C18)) is on record as 4.0. Moreover, in data set [2] (setting [10]), the “log P” value turned out to be 4.0. Further, the efficacy came out at 100% in data set [1] and 90% in data set [9] (application rate 100 g/ha).

On to `Cc1cc(C(F)(C(F)(F)F)C(F)(F)F)cc(C)c1-n1cc(-c2cc(C(=O)NC3CC3)ccc2F)cn1` [I-T3-13], for which the “logP^a)” value in data set [2] and in [2] (setting [10]) was 4.5 throughout. Also, the efficacy in data set [1] is given as 100%. For the same molecule, in data set [3], the “efficacy (laying of fertile eggs)” value is listed as 100%. For the same molecule, in data set [4], the “efficacy (kill)” value amounted to 80%.

On to `COCCNc1ncc(-c2cnn(-c3c(Cl)cc(C(F)(C(F)(F)F)C(F)(F)F)cc3Cl)c2)cc1C(=O)NC1CC1` [I-T3-138], for which the “logP^a)” value in data set [2] (reversed-phase column (C18)) was 4.1. In addition, the “log P” value in [2] (setting [10]) is on record as 4.1. The efficacy in [1] is on record as 100%; in [7] (application rate 100 g/ha), 83%; in [8] (application rate 100 g/ha), 100%; in data set [9] (application rate 100 g/ha), 90%.

As to `N#CC1(NC(=O)c2cc(-c3cnn(-c4c(F)cc(C(F)(C(F)(F)F)C(F)(F)F)cc4F)c3)ccc2Cl)CC1` [I-T3-62], the “logP^a)” value in data set [2] and in data set [2] (setting [10]) was 3.9 throughout. In data set [3], the “efficacy (laying of fertile eggs)” value came out at 100%. Besides, the “efficacy (kill)” value in [4], in data set [5] and in data set [6] was 100% throughout. Moreover, the efficacy in data set [7] (application rate 100 g/ha), in data set [8] (application rate 100 g/ha) and in data set [9] (application rate 100 g/ha) was 100% in each case.

As for `Cc1cc(C(F)(C(F)(F)F)C(F)(F)F)cc(C)c1-n1cc(-c2cnc(C3CC3)c(C(=O)NC3(C#N)CC3)c2)cn1` [I-T3-139], the “logP^a)” value in [2] (reversed-phase column (C18)) is 4.1. In data set [2] (setting [10]), the “log P” value came to 4.1. For the same molecule, the “efficacy (laying of fertile eggs)” value in data set [3] was 100%. The “efficacy (kill)” value is listed as 100% in [4], 100% in data set [5] and 90% in [6]. Also, the efficacy in data set [7] (application rate 100 g/ha), in data set [8] (application rate 100 g/ha) and in data set [9] (application rate 100 g/ha) was 100% throughout.

Consider `Cc1cc(C(F)(C(F)(F)F)C(F)(F)F)cc(C)c1-n1cc(-c2ccc(Cl)c(C(=O)NC3CSC3)c2)cn1` [I-T3-4], for which the “logP^a)” value in data set [2] and in [2] (setting [10]) was 4.7 in each case. Further, the “efficacy (laying of fertile eggs)” value in [3] is given as 100%. Moreover, the “efficacy (kill)” value in [4], in data set [5] and in data set [6] was 100% in each case. Also, the efficacy in [7] (application rate 100 g/ha), in data set [8] (application rate 100 g/ha) and in data set [9] (application rate 100 g/ha) was 100% throughout.

Turning to `O=C(NC1CC1)c1c(Cl)ccc(-c2cnn(-c3c(Cl)cc(C(F)(C(F)(F)F)C(F)(F)F)cc3Cl)c2)c1F` [I-T3-73], the “logP^a)” value in [2] and in [2] (setting [10]) was 4.5 throughout. Moreover, the “efficacy (laying of fertile eggs)” value in [3] is listed as 100%. In addition, the “efficacy (kill)” value in [4], in data set [5] and in [6] was 100% each time. Moreover, the efficacy in [7] (application rate 500 g/ha), in data set [8] (application rate 500 g/ha) and in data set [9] (application rate 100 g/ha) was 100% throughout.

With `N#CC1(NC(=O)c2cc(-c3cnn(-c4ncc(C(F)(C(F)(F)F)C(F)(F)F)cc4Cl)c3)ccc2Cl)CC1` [I-T3-151], the “logP^a)” value in data set [2] (reversed-phase column (C18)) was 4.0. The “log P” value in data set [2] (setting [10]) turned out to be 4.0. The “efficacy (laying of fertile eggs)” value in data set [3] was 100%. The “efficacy (kill)” value in data set [4], in data set [5] and in data set [6] was 100% in each case. Besides, the efficacy in data set [7] (application rate 100 g/ha) is 100%; in data set [8] (application rate 100 g/ha) it was 100%; in data set [9] (application rate 100 g/ha), 90%.

Take `Cc1cc(C(F)(C(F)(F)F)C(F)(F)F)cc(C)c1-n1cc(-c2ccc(Cl)c(C(=O)NCC(F)(F)F)c2)cn1` [I-T3-2]: the “logP^a)” value in data set [2] and in [2] (setting [10]) was 4.7 throughout. Moreover, in data set [3], the “efficacy (laying of fertile eggs)” value worked out at 100%. Moreover, the “efficacy (kill)” value in data set [4], in data set [5] and in data set [6] was 100% in each case. For the same molecule, the efficacy in data set [7] (application rate 100 g/ha), in data set [8] (application rate 100 g/ha) and in [9] (application rate 100 g/ha) was 100% throughout.

For `O=C(NCC(F)(F)F)c1cc(-c2cnn(-c3c(Cl)cc(C(F)(C(F)(F)F)C(F)(F)F)cc3C(F)(F)F)c2)ccc1Cl` [I-T3-58], the “logP^a)” value in [2] and in data set [2] (setting [10]) was 4.7 each time. Besides, the “efficacy (laying of fertile eggs)” value in data set [3] is 100%. The “efficacy (kill)” value in data set [4], in data set [5] and in data set [6] was 100% in each case. For the same molecule, the efficacy in [7] (application rate 100 g/ha), in [8] (application rate 100 g/ha) and in data set [9] (application rate 100 g/ha) was 100% each time.

With `N#CC1(NC(=O)c2cc(-c3cnn(-c4ccc(OC(F)(F)F)cc4Cl)c3)ccc2Cl)CC1` [I-T3-89], the “logP^a)” value in data set [2] and in data set [2] (setting [10]) was 3.5 throughout. Moreover, in data set [3], the “efficacy (laying of fertile eggs)” value is 100%. Further, the “efficacy (kill)” value in data set [4], in data set [5] and in [6] was 100% each time. Moreover, the results for the efficacy in data set [7] (application rate 500 g/ha), in data set [8] (application rate 500 g/ha) and in data set [9] (application rate 500 g/ha) were 100%, 100% and 90%, respectively.

The values are drawn from patent US10150737B2, “Compounds for controlling arthropods” (priority 2013, dated 2018).
